Experimental data taken from the supplement of paper PMC10307832.

Tests used:
Experiment in all cases: relative viability (nuclei count vs DMSO), 5 days (fraction); higher = more cells survive
[1] = compound: Cc1nc(C(=O)NCC(=O)O)c(O)c2ccc(Oc3ccccc3)cc12 [FG-4592] + Cc1nc(NC(=O)N2CCC[C@H]2C(N)=O)sc1-c1ccnc(C(C)(C)C(F)(F)F)c1 [Alpelisib] (partner 2 µM)
How it was run: (§1)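 Lung cancer cell lines were seeded in 1536-well plates and dosed by pin tool the next day, with either a single drug or a fixed anchor-drug dose combined with five library-drug doses (not always all listed) spaced in √10 steps. Five days later, one step fixed the cells and stained their nuclei (final 0.05% Triton X-100, 1% formaldehyde, 1 ug/ml Hoechst), and nuclei were counted on 4× images. Relative viability is the nuclei count in treated wells divided by the count in vehicle wells, and each value is the median of duplicate plates.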

[2] = compound: CC1=CC(=C(N1C2=CC=C(C=C2)Cl)C)C(=O)CN3CCCCC3 [IU1-47] + CS(=O)(=O)CCNCc1ccc(-c2ccc3ncnc(Nc4ccc(OCc5cccc(F)c5)c(Cl)c4)c3c2)o1 [Lapatinib] (partner 2 µM)
How it was run: as §1

[3] = compound: Cc1nc(C(=O)NCC(=O)O)c(O)c2ccc(Oc3ccccc3)cc12 [FG-4592] + O=C(c1cc(Cc2n[nH]c(=O)c3ccccc23)ccc1F)N1CCN(C(=O)C2CC2)CC1 [Olaparib] (partner 8 µM)
How it was run: as §1

[4] = compound: Cc1nc(C(=O)NCC(=O)O)c(O)c2ccc(Oc3ccccc3)cc12 [FG-4592] + Cc1cc(Nc2cc(N3CCN(C)CC3)nc(Sc3ccc(NC(=O)C4CC4)cc3)n2)n[nH]1 [Tozasertib] (partner 0.1 µM)
How it was run: as §1

Cell Line	relative viability ([1]; first compound 0.08 µM)	relative viability ([1]; first compound 0.253 µM)	relative viability ([1]; first compound 0.8 µM)	relative viability ([1]; first compound 2.53 µM)	relative viability ([1]; first compound 8 µM)	relative viability ([2]; first compound 0.08 µM)	relative viability ([2]; first compound 0.253 µM)	relative viability ([2]; first compound 0.8 µM)	relative viability ([2]; first compound 8 µM)	relative viability ([3]; first compound 0.08 µM)	relative viability ([3]; first compound 0.253 µM)	relative viability ([3]; first compound 0.8 µM)	relative viability ([3]; first compound 2.53 µM)	relative viability ([3]; first compound 8 µM)	relative viability ([4]; first compound 0.08 µM)	relative viability ([4]; first compound 0.253 µM)	relative viability ([4]; first compound 0.8 µM)	relative viability ([4]; first compound 2.53 µM)	relative viability ([4]; first compound 8 µM)	relative viability ([2]; first compound 2.53 µM)
201T	0.96	0.96	0.879	1.02	1.03	1.04	1	1.05	0.957	0.841	0.794	0.843	0.878	0.827	0.856	0.965	1.06	0.998	0.946	
A549	0.831	0.626	0.823	0.759	0.686	0.987	1.1	0.92	0.858	0.252	0.274		0.44	0.385						1.08
A-427	1.04	1.07	1.04	1.13	1.05	1.01	0.994	0.977	0.873	0.687	0.731	0.718	0.689	0.705	0.21	0.223	0.201	0.206	0.224	
ABC-1	1.17		1.17	0.958	0.866	1.45	1.08	1.06	1.12	0.781	0.798		1.13	1.07	0.177	0.178	0.148	0.187	0.149	0.821
BEN	0.831	0.807	0.753	0.965	0.701	0.723	0.816	1.09	0.633	1.13	0.99	1.07	1.02	0.956	0.564	0.459	0.475	0.676	0.452	0.617
CAL-12T	1.13	1.23	1.55	1.13	0.971	0.683	0.765	0.744	0.763	0.63	0.67	0.727	0.764	0.687	0.335	0.267	0.312	0.293	0.29	0.591
COR-L23	0.751	0.653	0.918	0.768	0.783	1.19	1.12	1.07	0.892	0.331	0.358	0.358	0.3	0.369	0.186	0.212	0.217	0.153	0.171	0.92
COR-L 105	1.07	0.91	0.981	0.732	1.02	0.312	0.405	0.382	0.333	0.767	0.787	0.792	0.719	0.635	0.348	0.375	0.359	0.297	0.35	0.328
Calu-6	0.952	0.846	1.12	0.985	0.969	1.14	1.23	1.11	0.94	0.543	0.575	0.653	0.56	0.648						1.18
